Molecular target: T1, AcrIII-1 (SIRV1 gp29) (Sulfolobus islandicus rod-shaped virus 1, UniProt Q8QL27, H47A)
T1 construct: gene 114
Test: biochemical

T1 sequence (Q8QL27 whole entry H47A): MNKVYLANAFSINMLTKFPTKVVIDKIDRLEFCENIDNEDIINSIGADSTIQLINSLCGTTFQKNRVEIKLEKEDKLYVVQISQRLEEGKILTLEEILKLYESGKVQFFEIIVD

In the case of `Nc1ncnc2c1ncn2[C@@H]1O[C@@H]2COP(=O)(O)O[C@H]3[C@@H](O)[C@H](n4cnc5c(N)ncnc54)O[C@@H]3COP(=O)(O)O[C@H]3[C@@H](O)[C@H](n4cnc5c(N)ncnc54)O[C@@H]3COP(=O)(O)O[C@H]3[C@@H](O)[C@H](n4cnc5c(N)ncnc54)O[C@@H]3COP(=O)(O)O[C@H]2[C@H]1O` [cA4, cyclic tetra-adenylate], the Kd is reported as about 25 nM.

From article PMC7213978, “The dynamic interplay of host and viral enzymes in type III CRISPR-mediated cyclic nucleotide signalling” (eLife, 2020)
